{
  "source": "paper PMC5292677",
  "about": "(Leukemia, 2016)",
  "origin": "cited, not measured here",
  "system": "patients with MF",
  "details": "cited from earlier work",
  "note": "Read-outs that look alike come from different tables or passages of the source.",
  "data": [
    {"smiles": "Cc1cnc(Nc2ccc(OCCN3CCCC3)cc2)nc1Nc1cccc(S(=O)(=O)NC(C)(C)C)c1", "note": "[fedratinib]", "values": [
      {"measurement": "Change in allele burden", "value": "no meaningful change in allele burden"},
      {"measurement": "CRP and IL-6 levels", "setting": "patients treated, no reference given", "value": "CRP downregulation was reported without significant IL-6 reduction"}
    ]},
    {"smiles": "N#CCNC(=O)c1ccc(-c2ccnc(Nc3ccc(N4CCOCC4)cc3)n2)cc1", "note": "[momelotinib]", "values": [
      {"measurement": "Change in allele burden", "value": "no meaningful change in allele burden"}
    ]},
    {"smiles": "C1=C/COCc2cc(ccc2OCCN2CCCC2)Nc2nccc(n2)-c2cccc(c2)COC/1", "note": "[pacritinib]", "values": [
      {"measurement": "Myelosuppression", "value": "lack of myelosuppression"}
    ]},
    {"smiles": "N#CC[C@H](C1CCCC1)n1cc(-c2ncnc3[nH]ccc23)cn1", "note": "[ruxolitinib]", "values": [
      {"measurement": "TNFα level", "setting": "following 4 weeks' treatment", "value": "downregulated"},
      {"measurement": "Change in allele burden", "setting": "long-term treatment", "value": "only a modest reduction"}
    ]}
  ]
}
